Assay type in all cases: biochemical
Assay [1] concerns the target ALK kinase (Homo sapiens, UniProt Q9UM73). Description: ALK kinase activity inhibition assay (HTRF). On the procedure: Measure compound inhibitory activity against ALK kinase using HTRF Assay.1× kinase reaction buffer was prepared. The kinase reaction conditions were as follows: kinase concentration at 0.04 ng/µL; ATP working concentration in substrate mixture solution at 2 µM; final substrate concentration at 1 µM. Compounds were serially diluted in DMSO and shaken on an orbital shaker for 20 minutes. 2× kinase solution was prepared using 1× kinase reaction buffer. 1 µL of compound solution was transferred to a 384-well plate. 2 µL of kinase solution was added to each well of the reaction plate. The plate was sealed with adhesive film, centrifuged at 1000 rpm for 60 seconds, and incubated at 25°C for 10 minutes. 2.5× ATP/substrate mixture was prepared using 1× kinase reaction buffer. 2 µL of 2.5× ATP/substrate mixture was added to the reaction plate. The plate was sealed with adhesive film, centrifuged at 1000 rpm for 60 seconds, and incubated at 25°C for 50 minutes. 4× Sa-XL 665 solution was prepared using HTRF detection buffer. 5 µL of Sa-XL 665 solution and 5 µL of TK-antibody-Cryptate solution were added to each well. The plate was centrifuged at 1000 rpm for 60 seconds and incubated at 25°C for 60 minutes. Fluorescence signals were measured at 615 nm (Cryptate) and 665 nm (XL665) using a BMG microplate reader. The ratio for each well was calculated as: Ratio_665/615nm. The inhibition percentage was calculated as follows: % inhibition = 100% - [(Compound Ratio - Positive Control Ratio)/(Negative Control Ratio - Positive Control Ratio)] × 100%. The IC50 values (half-maximal inhibitory concentration) of compounds were determined by fitting the data to the following nonlinear regression equation using GraphPad Prism 7.0 software: Y = Bottom + (Top - Bottom)/(1 + 10^(([…] - X) × Hill Slope)) where: X = log(compound concentration), Y = % inhibition.
In general terms: In TR-FRET formats the signal depends on donor and acceptor labels being close together.

Assay [2] addresses HPK1 kinase (Homo sapiens, UniProt Q92918). Briefly: HPK1 kinase activity inhibition assay (Mobility shift assay). On the procedure: Measure compound inhibitory activity against HPK1 kinase using Mobility shift assay. Compounds were dissolved in 100% DMSO to prepare 10 mM stock solutions. 1× Kinase buffer was prepared. Test compounds were serially diluted in 5-fold gradients, and 250 nL of 100× final concentration compounds were transferred to destination plate 3573 using an Echo 550 liquid handler. A 2.5× final concentration kinase solution was prepared in 1× Kinase Buffer. 10 µL of the 2.5× kinase solution was added to both compound wells and positive control wells, while 10 µL of 1× Kinase buffer was added to negative control wells. The plate was centrifuged at 1000 rpm for 30 seconds, mixed by orbital shaking, and incubated at room temperature for 10 minutes. A 5/3× final concentration mixture of ATP and Kinase substrate 25 was prepared in 1× Kinase buffer. 15 µL of the 5/3× ATP/substrate mixture was added to initiate the reaction. The 384-well plate was centrifuged at 1000 rpm for 30 seconds, mixed by shaking, and incubated at room temperature for 120 minutes. The kinase reaction was terminated by adding 30 µL stop solution, followed by centrifugation at 1000 rpm for 30 seconds and mixing. Conversion rates were measured using a Caliper EZ Reader. The inhibition percentage was calculated as: %Inhibition = (Conversion%_max - Conversion%_sample)/(Conversion%_max - Conversion%_min) × 100. Where Conversion%_sample: Conversion rate reading of test samples; Conversion%_min: Mean value of negative control wells (representing conversion rate without enzyme activity); Conversion%_max: Mean value of positive control wells (representing conversion rate without compound inhibition). Dose-response curves were plotted with log(concentration) as the X-axis and percentage inhibition as the Y-axis. Curve fitting was performed using GraphPad Prism 5 software with the "log(inhibitor) vs. response - Variable slope" model to derive IC50 values for each compound's enzyme inhibitory activity. The fitting formula was: Y = Bottom + (Top - Bottom)/(1 + 10^((LogIC50 - X) × HillSlope)).

Assay [3] has as its target CDK7/CycH/MAT1 kinase (Homo sapiens, UniProt P50613). Briefly: CDK7 kinase activity inhibition assay (ADP-Glo). On the procedure: Measure compound inhibitory activity against CDK7/CycH/MAT1 kinase using ADP-Glo assay. 1× kinase reaction buffer was prepared (working concentrations: HEPES 50 mM, MgCl2 10 mM, Brij35 0.01%, DTT 2 mM). The kinase reaction conditions were as follows: Kinase concentration: 3.5 ng/µL; Substrate mixture working concentrations: ATP 30 µM, CDK substrate 0.1 mg/ mL. Compounds were serially diluted in DMSO and shaken on an orbital shaker for 20 minutes. 2× kinase solution was prepared using 1× kinase buffer. 1 µL of compound solution was transferred to a 384-well plate. 2 µL of kinase solution was added to each well of the reaction plate. The plate was sealed with adhesive film, centrifuged at 1000 rpm for 60 seconds, and incubated at 25°C for 10 minutes. 4× ATP&substrate mixture was prepared using 1× kinase buffer. 1 µL of 4× ATP&substrate mixture was added to the reaction plate. The plate was sealed with adhesive film, centrifuged at 1000 rpm for 60 seconds, and incubated at 25°C for 60 minutes. 4 µL of ADP-Glo reagent was transferred to the 384-well reaction plate, centrifuged at 1000 rpm for 1 minute, and incubated at 25°C for 40 minutes. 8 µL of Detection solution was transferred to the 384-well reaction plate, centrifuged at 1000 rpm for 1 minute, and incubated at 25°C for 40 minutes. Relative luminescence units (RLU) were measured using a BMG microplate reader, with signal intensity representing kinase activity level. The inhibition percentage was calculated as follows: % inhibition = 100% - [(Compound RLU - Positive Control RLU)/(Negative Control RLU - Positive Control RLU)] × 100%. The IC50 values (half-maximal inhibitory concentration) of compounds were determined by fitting the data to the following nonlinear regression equation using GraphPad Prism 7.0 software: Y = Bottom + (Top - Bottom)/(1 + 10^((LogIC50 - X) × Hill Slope)), where: X = log(compound concentration), Y = % inhibition.
On the technique in general: ADP-Glo first removes unused ATP, then detects ADP through luciferase.

[4] abbreviates: Table 4, ATP 2 µM, read-out: ALK (IC50).
Where [5] appears, read: Table 4, ATP 30 µM, read-out: CDK7 (IC50).

The text below walks through data of patent publication EP4653444A1, “FUSED TRICYCLIC COMPOUND AS KINASE INHIBITOR” (Hangzhou Innogate Pharma Co., Ltd., priority 2023, dated 2024).

The structures appear in SMILES notation. Where two headings read alike, the source gives them in different places. A value given as a limit tells only on which side of the number the result lay.

Chain of HPK1 kinase (Q92918 whole entry): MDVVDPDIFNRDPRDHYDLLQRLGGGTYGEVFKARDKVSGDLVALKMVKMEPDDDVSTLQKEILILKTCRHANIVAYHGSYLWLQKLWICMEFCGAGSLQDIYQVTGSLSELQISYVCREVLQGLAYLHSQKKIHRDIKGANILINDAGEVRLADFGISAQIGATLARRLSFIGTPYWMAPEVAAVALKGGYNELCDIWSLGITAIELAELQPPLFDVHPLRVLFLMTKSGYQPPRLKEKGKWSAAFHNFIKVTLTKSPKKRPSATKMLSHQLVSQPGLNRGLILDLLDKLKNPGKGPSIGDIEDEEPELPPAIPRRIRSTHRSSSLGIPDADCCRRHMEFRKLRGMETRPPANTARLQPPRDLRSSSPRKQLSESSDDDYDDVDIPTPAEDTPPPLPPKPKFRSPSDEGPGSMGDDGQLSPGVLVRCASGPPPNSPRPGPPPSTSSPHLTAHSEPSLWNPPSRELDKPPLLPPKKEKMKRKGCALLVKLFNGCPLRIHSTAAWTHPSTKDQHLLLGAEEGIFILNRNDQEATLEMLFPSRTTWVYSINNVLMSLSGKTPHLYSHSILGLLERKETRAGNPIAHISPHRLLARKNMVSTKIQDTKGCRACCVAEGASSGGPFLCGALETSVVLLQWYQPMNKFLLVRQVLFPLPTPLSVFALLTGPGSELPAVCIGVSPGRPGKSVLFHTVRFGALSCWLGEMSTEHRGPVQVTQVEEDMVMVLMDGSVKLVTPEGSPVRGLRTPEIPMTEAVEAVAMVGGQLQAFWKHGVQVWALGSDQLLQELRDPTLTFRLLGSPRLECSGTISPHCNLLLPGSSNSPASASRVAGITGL
Chain of ALK kinase (Q9UM73 19-1620): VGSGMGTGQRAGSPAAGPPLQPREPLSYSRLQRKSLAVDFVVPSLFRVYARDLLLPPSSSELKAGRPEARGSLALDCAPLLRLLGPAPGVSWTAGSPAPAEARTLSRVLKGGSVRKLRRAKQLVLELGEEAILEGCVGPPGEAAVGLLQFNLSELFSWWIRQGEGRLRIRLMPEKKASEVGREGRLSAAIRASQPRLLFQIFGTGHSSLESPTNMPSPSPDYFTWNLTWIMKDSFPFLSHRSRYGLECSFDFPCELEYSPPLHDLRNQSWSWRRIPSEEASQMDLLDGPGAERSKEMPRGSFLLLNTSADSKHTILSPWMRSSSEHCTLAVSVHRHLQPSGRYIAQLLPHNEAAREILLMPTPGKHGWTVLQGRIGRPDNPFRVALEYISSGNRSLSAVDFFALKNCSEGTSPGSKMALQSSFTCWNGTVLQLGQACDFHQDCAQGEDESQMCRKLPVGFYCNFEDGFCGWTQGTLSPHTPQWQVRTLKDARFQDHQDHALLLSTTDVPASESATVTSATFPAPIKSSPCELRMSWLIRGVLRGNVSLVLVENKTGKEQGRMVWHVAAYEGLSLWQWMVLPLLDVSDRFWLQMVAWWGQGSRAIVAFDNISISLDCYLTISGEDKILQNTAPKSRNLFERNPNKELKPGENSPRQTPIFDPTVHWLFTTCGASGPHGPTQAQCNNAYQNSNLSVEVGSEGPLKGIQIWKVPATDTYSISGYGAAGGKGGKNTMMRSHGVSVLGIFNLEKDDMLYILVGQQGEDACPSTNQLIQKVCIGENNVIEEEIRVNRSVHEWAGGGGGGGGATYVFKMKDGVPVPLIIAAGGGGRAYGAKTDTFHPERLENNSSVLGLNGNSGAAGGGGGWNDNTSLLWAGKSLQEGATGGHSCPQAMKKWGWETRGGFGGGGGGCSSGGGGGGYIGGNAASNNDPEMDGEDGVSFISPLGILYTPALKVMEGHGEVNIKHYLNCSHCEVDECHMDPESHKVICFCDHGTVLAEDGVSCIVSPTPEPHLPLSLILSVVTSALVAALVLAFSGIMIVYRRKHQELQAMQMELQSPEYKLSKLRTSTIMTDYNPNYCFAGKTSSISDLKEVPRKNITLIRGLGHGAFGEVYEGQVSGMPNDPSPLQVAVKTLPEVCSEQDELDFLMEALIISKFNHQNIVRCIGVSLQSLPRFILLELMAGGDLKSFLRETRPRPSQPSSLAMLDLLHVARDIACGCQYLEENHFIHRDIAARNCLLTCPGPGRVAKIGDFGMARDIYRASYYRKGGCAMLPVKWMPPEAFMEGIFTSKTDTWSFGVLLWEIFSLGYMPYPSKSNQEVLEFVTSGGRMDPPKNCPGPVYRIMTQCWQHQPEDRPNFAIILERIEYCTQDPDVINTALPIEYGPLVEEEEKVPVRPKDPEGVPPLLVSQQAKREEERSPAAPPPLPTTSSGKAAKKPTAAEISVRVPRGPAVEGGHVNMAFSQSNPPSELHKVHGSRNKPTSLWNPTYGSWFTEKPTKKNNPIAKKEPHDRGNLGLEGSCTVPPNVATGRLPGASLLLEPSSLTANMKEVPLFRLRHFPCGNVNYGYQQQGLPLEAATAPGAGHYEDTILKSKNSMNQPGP
Chain of CDK7/CycH/MAT1 kinase (P50613 whole entry, species assumed): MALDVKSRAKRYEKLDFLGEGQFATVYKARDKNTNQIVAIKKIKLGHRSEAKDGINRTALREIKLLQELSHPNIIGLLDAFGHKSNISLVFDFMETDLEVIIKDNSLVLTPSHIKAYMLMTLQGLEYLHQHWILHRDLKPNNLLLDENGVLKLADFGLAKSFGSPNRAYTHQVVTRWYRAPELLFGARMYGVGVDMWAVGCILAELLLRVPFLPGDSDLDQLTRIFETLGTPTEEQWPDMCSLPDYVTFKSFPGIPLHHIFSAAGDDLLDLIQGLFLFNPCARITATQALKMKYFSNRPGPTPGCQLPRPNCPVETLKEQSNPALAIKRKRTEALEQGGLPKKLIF
Chain of CDK7/CycH/MAT1 kinase (P51946 whole entry partner, species assumed): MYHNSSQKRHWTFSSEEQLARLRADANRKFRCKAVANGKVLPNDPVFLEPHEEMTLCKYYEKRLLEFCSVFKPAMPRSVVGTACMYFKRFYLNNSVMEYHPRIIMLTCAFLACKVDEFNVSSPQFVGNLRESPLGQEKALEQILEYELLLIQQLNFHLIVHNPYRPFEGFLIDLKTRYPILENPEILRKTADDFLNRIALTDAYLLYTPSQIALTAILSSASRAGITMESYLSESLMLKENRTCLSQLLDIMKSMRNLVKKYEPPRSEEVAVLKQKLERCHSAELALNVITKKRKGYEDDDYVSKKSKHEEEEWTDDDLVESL
Chain of CDK7/CycH/MAT1 kinase (P51948 whole entry partner, species assumed): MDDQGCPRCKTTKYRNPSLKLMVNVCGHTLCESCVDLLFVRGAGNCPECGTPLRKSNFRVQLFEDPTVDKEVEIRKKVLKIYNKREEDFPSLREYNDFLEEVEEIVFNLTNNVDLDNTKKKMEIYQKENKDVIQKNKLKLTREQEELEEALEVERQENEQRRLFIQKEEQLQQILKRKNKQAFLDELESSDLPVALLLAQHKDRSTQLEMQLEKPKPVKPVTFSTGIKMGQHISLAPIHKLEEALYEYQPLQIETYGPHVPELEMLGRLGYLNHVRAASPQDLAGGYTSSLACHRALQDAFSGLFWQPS

For orientation: IC50 means the concentration at which inhibition is half-maximal. In the case of `COc1cc2c(cc1Nc1ncc(Cl)c(Nc3ccccc3S(=O)(=O)C(C)C)n1)OC[C@@H]1CN(C3CCN(C)CC3)CCN21` [Compound C2S], the IC50 in assay [1] was below 0.05 nM.
For `CNC(=O)c1ccccc1Nc1cc(Nc2cc3c(cc2OC)N2CCN(C4CCN(C)CC4)C[C@@H]2CO3)ncc1C(F)(F)F` [Compound D2R], the IC50 in assay [1] was below 10 nM; in assay [2], below 30 nM; in assay [3], below 15 nM.
Take `CNC(=O)c1ccccc1Nc1cc(Nc2cc3c(cc2OC)N2CCN(C4CCN(C)CC4)C[C@H]2CO3)ncc1C(F)(F)F` [Compound D2S]: the IC50 in assay [1] (setting [4]) was below 15 nM; in assay [2] (Table 4, read-out: HPK1 (IC50)) it was below 30 nM; in assay [3] (setting [5]), below 15 nM.
Take `CNC(=O)c1ccccc1Nc1cc(Nc2cc3c(cc2OC)N2CCN(C4CN(C)C4)C[C@H]2CO3)ncc1C(F)(F)F` [Compound D4S]: the IC50 was below 15 nM in assay [1] (setting [4]); below 20 nM in assay [2] (Table 4, read-out: HPK1 (IC50)); below 10 nM in assay [3] (setting [5]).
